The assay deals with SARS 3CL^PRO (Severe acute respiratory syndrome coronavirus, UniProt P0C6X7). Kind of assay: biochemical.

Experimental findings from US20100168225A1, “Small-Molecule Hepatitis C Virus (HCV) NS3/4A Serine Protease Inhibitors” (priority 2007, published 2010) are described below.

As for `O=c1ccc2ccc(O)c(O)c2o1` [Compound C10, Daphnetin], the IC50 (commonly the concentration at which inhibition is half-maximal) (ID50) is 168 µM.
As for `O=c1oc2cc(O)c(O)cc2cc1O` [Compound C11, 3-hydroxyesculetin], the IC50 is, setting by setting: (ID50) 97 µM; (ID50 (μM) (by kinetic assay) SARS 3CL^PRO) 96.6 µM.
`CC(=O)Nc1cc2cc(OC(C)=O)c(OC(C)=O)cc2oc1=O` [Compound C12, 3-aminoacyl-6,7-diacetoxycoumarin] displayed a 50% inhibitory concentration (IC50) (ID50) of 183 µM.
The same measure, in the same setting: then `O=c1oc2c(O)c(O)ccc2cc1O` [Compound C21, 3,7,8-trihydroxycoumarin], with 100 µM.
On the same count and under the same terms, then `CC(=O)Nc1cc2ccc(OC(C)=O)c(OC(C)=O)c2oc1=O` [Compound C22, 3-aminoacyl-7,8-diacetoxycoumarin], with 184 µM.
